pIC50: −log10 of the molar value.
How the values were obtained:
MDA-MB-231 = experiment: Cytotoxicity against human MDA-MB-231 cells by MTT assay; format: functional, cell-based
MCF7 = experiment: Cytotoxicity against human MCF7 cells by MTT assay; format: functional, cell-based

SMILES: CC1=C(CO)C(=O)O[C@@H]([C@@H](C)[C@H]2CC[C@H]3[C@@H]4C[C@H]5O[C@]56[C@@H](O)C=CC(=O)[C@]6(C)[C@H]4CC[C@]23C)C1 [WITHAFERIN A]
- pIC50 (MDA-MB-231): 6.30

SMILES: CC1=C(C)C(=O)O[C@@H]([C@@H](C)[C@H]2CC[C@H]3[C@@H]4C[C@H]5O[C@]56[C@@H](O)C=CC(=O)[C@]6(CO)[C@H]4CC[C@]23C)C1 [WITHALONGOLIDE B]
- pIC50 (MDA-MB-231): 6.70
- pIC50 (MCF7): 6.10

SMILES: CC(=O)O[C@H]1C[C@H]([C@@](C)(O)[C@@H]2C[C@H](C)[C@@H](C)C(=O)O2)[C@@]2(C)CC[C@H]3[C@@H](C[C@H]4O[C@]45CC=CC(=O)[C@]35C)[C@@]12O
- pIC50 (MDA-MB-231): 5.77
- pIC50 (MCF7): 5.20

— ChEMBL document CHEMBL3632519, “Withanolides and Sucrose Esters from Physalis neomexicana” (J Nat Prod, 2015)
